This passage reports TGI and GI50 results from PubChem BioAssay (NCI).

SMILES strings stand for the structures.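 Assay format: 96-well plates, 48-hour exposure. GI50 is the concentration that inhibits growth by half. At the TGI there is no net growth.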

What all share (experiment): DTP human tumour cell line panel, 48 h
In test [1] the test system is 786-0 renal.
Test [2] deals with A498 renal.
Test [3] relates to A549 NSCLC.
For test [4], the system named is MDA-MB-435.
Test [5] deals with NCI-H522 lung.
Test [6] deals with SF-539 CNS.
The subject of test [7] is TK-10 renal.
The test system of test [8] is U251 CNS.
Test [9] relates to UACC-62 melanoma.
For test [10], the system named is LOX IMVI melanoma.

What is called TGI is the concentration giving total growth inhibition. As to `COC(=O)c1onc(C2OC(C)(C)OC2C(O)COC(c2ccccc2)(c2ccccc2)c2ccccc2)c1C(=O)OC` (stereo not drawn), the TGI in test [1], in [2], in [3], in test [4], in test [5] and in [6] was > 100 µM throughout. The TGI in test [7], in [8] and in test [9] was > 100 µM in each case.
On to `Oc1ccc2ccccc2c1OCc1nnc(CCCCCCCCc2nnc(COc3c(O)ccc4ccccc34)n2Nc2ccccc2)n1Nc1ccccc1`, for which the TGI was 58.7 µM in test [1]; > 100 µM in test [2]; > 100 µM in test [3]; 31.8 µM in test [4]; 26.6 µM in test [5]; 26.7 µM in test [6]. The results for the TGI in test [7], in test [8] and in test [9] were > 100 µM, > 58.9 µM and 26.6 µM, respectively.
On to `O=S(=O)(/N=S(/Nc1ccccc1)C(F)(F)Cl)c1ccccc1` (stereo not drawn), for which the TGI in test [1], in test [2], in [3], in test [10], in [4] and in test [6] was > 100 µM throughout. The TGI in test [7], in test [8] and in [9] was > 100 µM in each case.
Take `O=[N+]([O-])c1ccc(N2N=C(c3c(O)ccc4ccccc34)CC2c2ccc(Cl)cc2)c([N+](=O)[O-])c1` (stereo not drawn): the TGI in [1] is > 100 µM; in test [2], 63.9 µM; in test [3] it was 88.1 µM; in [4], > 100 µM; in test [5] it was > 100 µM; in [6], 91.7 µM. For the same molecule, the TGI in test [7] was > 100 µM; in test [8] it was > 100 µM; in test [9], 60.4 µM.
As a reminder, the GI50 is the concentration giving 50% growth inhibition. Regarding `O=C(O)Cn1c2c(c3c1-c1ccccc1C3=O)C(=O)CCC2`, the GI50 in [2], in test [3], in test [10], in [4], in test [5] and in test [6] was > 100 µM in each case. The GI50 in [7] and in [8] was > 100 µM in each case. For the same molecule, the TGI in test [2], in [3], in [10], in test [4], in [5] and in [6] was > 100 µM in each case. For the same molecule, the TGI in test [7] and in test [8] was > 100 µM each time.
With `COc1ccc(/C=c2\[nH]c3nc(=O)c(N4CCCCC4)c(N)n3c2=O)cc1`, the TGI in test [1], in test [2], in [3], in test [10], in test [4] and in test [5] was > 100 µM throughout. Further, the TGI in [6], in test [7] and in [8] was > 100 µM throughout.
On to `COC(=O)c1c2c(cc3c1CC1(Cc4cc5c(c(C)c4C1)CCC5)C3)CCC2` (stereo not drawn), for which the TGI in [1], in test [2], in [3], in test [10], in [4] and in test [5] was > 100 µM in each case. Besides, the TGI in test [6], in [7] and in test [8] was > 100 µM throughout.
As for `CC(C)[C@H](C)/C=C/[C@@H](C)C1CC[C@H]2[C@@]34C=C[C@]5(C[C@@H](O)CC[C@]5(C)[C@H]3CC[C@]12C)OO4` (stereo partly drawn), the total growth inhibition concentration (TGI) was 47.7 µM in [1]; 57.3 µM in [2]; > 100 µM in [3]; 41.6 µM in test [10]; 91.6 µM in test [4]; > 100 µM in [6]. The values for the TGI in [7], in test [8] and in test [9] were > 100 µM, 58.5 µM and 43.6 µM, respectively.
As to `Cc1nc2ccc(Br)cc2c(=O)n1-c1ccc(N)cc1`, the TGI in test [1], in test [2], in test [3], in [10], in test [4] and in test [6] was > 100 µM throughout. The TGI in test [7] and in test [9] was > 100 µM each time.
In the case of `COc1cc(S(=O)(=O)Nc2ccc(-c3csc(N4C(=O)C(Cl)C4c4ccccc4O)n3)cc2)ccc1Cl` (stereo not drawn), the TGI is > 100 µM in [1]; 0.948 µM in test [2]; > 100 µM in [3]; 3.56 µM in [10]; > 100 µM in test [4]; 3.48 µM in test [5]. The results for the TGI in [6] and in test [9] were > 100 µM and 59.1 µM, respectively.
Take `O=CC(O)C(O)C(O)C(O)COC(=O)NCCCCC(=O)C(F)(F)C(F)(F)C(F)(F)C(F)(F)C(F)(F)C(F)(F)C(F)(F)F` (stereo not drawn): the TGI in test [1] is > 100 µM; in [2], 47.5 µM; in [3], > 100 µM; in test [10], 30.1 µM; in [4] it was 62.4 µM; in test [6] it was 39.2 µM. Also, the figures for the TGI in test [7] and in test [9] were > 100 µM and 35.1 µM, respectively.
On to `O=c1[nH]cc(N=Cc2cc(Cl)ccc2O)c(=O)[nH]1`, for which the TGI in test [1] was 70.6 µM; in test [2], > 100 µM; in test [3] it was > 100 µM; in test [4], > 100 µM; in [5] it was > 100 µM; in [6] it was 7.43 µM. The TGI is > 100 µM in test [7], 88.2 µM in test [8] and 71.7 µM in [9].
For the molecule `CN(C)C=N[C@@H](C(=O)O)c1ccccc1`, the TGI in test [1], in test [2], in test [3], in test [10], in test [4] and in test [7] was > 100 µM in each case. Moreover, the TGI in [8] and in test [9] was > 100 µM in each case.
Consider `COc1cc2nc(N3CCC[C@H](NC4=CC(=O)c5ccccc5C4=O)C3)nc(N)c2cc1OC`, for which the GI50 in [2] was 11.8 µM; in [3], 2.23 µM; in test [4], 2.05 µM; in test [5] it was 1.83 µM; in test [6], 1.94 µM; in test [7], 2.41 µM. In addition, the results for the GI50 in test [8] and in test [9] were 1.65 µM and 2.14 µM, respectively. Further, the TGI in [2] was 34 µM; in test [3] it was 4 µM; in [4], 4.03 µM; in test [5], 3.58 µM; in test [6], 3.77 µM; in [7], 4.12 µM. The figures for the TGI in test [8] and in test [9] were 3.18 µM and 4.72 µM, respectively.
With `CC(=O)CC(=O)N1CCSC1=S`, the TGI in test [1], in [2], in test [3], in test [10], in test [4] and in [6] was > 10 µM throughout. Besides, the TGI in test [7], in test [8] and in test [9] was > 10 µM each time.
As for `c1ccc2c[n+](CCCC[n+]3ccc4ccccc4c3)ccc2c1`, the TGI in test [1], in test [2], in test [3], in test [10], in test [4] and in test [6] was > 100 µM throughout. For the same molecule, the TGI in test [7], in test [8] and in test [9] was > 100 µM in each case.
Consider `C=C(Br)C[N+]12CN3CN(CN(C3)C1)C2`, for which the total growth inhibition concentration (TGI) in test [1], in [2], in test [3], in [10], in test [4] and in [5] was > 100 µM in each case. The TGI in [6], in [8] and in test [9] was > 100 µM each time.
Consider `O=C1CC(c2ccsc2)n2cccc21` (stereo not drawn), for which the TGI in [1], in [2], in [3], in [4], in test [5] and in test [6] was > 100 µM each time. Moreover, the TGI in [7], in test [8] and in [9] was > 100 µM in each case.
For `COC(=O)/C=C\n1nc(Br)c(=O)[nH]c1=O`, the TGI in test [2], in test [3], in [10], in test [4], in test [5] and in test [6] was > 100 µM in each case. The TGI in test [7] and in test [8] was > 100 µM throughout.
For `[N-]=[N+]=Nc1nc2ccccc2c(N=[N+]=[N-])c1Cl`, the TGI in test [1] was > 100 µM; in test [2] it was 46.9 µM; in test [3], > 100 µM; in [10] it was > 100 µM; in test [4], > 100 µM; in test [6], > 100 µM. Moreover, the TGI in test [7], in test [8] and in test [9] was > 100 µM each time.
With `Cc1cn(C2CC(COCc3ccccc3)N(CCO[Si](C)(C)C(C)(C)C)O2)c(=O)[nH]c1=O` (stereo not drawn), the TGI in [1] is > 100 µM; in test [2], 36.8 µM; in test [3], 28.4 µM; in [4], 34.9 µM; in [5], 31.4 µM; in test [6], 33.9 µM. Also, the TGI in test [7] was found to be 27.3 µM; in [8], 62.5 µM; in test [9], 24.3 µM.
